Data taken from patent US10800792B2, “Inhibitors of Bruton's tyrosine kinase and method of their use” (JANSSEN PHARMACEUTICA NV, priority 2015, dated 2020).

target: unphosphorylated-BTK kinase domain (UP-BTK), GST-tagged human BTK (389-659aa) (Homo sapiens (Human), UniProt Q06187); assay: BTK kinase Lanthascreen binding assay; details: Lanthascreen tracer competition, 60 minutes incubation; pIC50 = negative log of the IC50 in molar
Experimental: BTK Kinase Lanthascreen Binding Assay:
A BTK kinase lanthascreen binding assay monitors compound binding to unphosphorylated-BTK kinase domain (UP-BTK), by competing with a fluorescent labeled tracer. […] Data were analyzed using Xlfit™ version 5.3 from ID Business Solutions (Guildford), Microsoft Excel add-in. pIC50 refers to the negative log of the IC50 in molar

Chain of unphosphorylated-BTK kinase domain (UP-BTK), GST-tagged human BTK (389-659aa) (Q06187 389-659): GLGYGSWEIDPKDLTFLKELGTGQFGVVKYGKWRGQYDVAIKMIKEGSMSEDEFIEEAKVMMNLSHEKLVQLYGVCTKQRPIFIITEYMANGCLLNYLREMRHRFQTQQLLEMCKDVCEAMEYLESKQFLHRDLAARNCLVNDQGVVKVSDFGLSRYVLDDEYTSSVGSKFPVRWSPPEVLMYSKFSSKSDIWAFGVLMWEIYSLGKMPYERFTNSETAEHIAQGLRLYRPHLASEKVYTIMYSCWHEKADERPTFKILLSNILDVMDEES

Row | SMILES | BTK_I_binding pIC50
1 | Cc1ccc(-c2ccccc2)cc1N1C(=O)Nc2c(C(=O)N[C@@H]3CCCNC3)sc3nccc1c23 [Example 725, (R)-5-(4-Methyl-[1,1′-biphenyl]-3-yl)-4-oxo-N-(piperidin-3-yl)-4,5-dihydro-3H-1-thia-3,5,8-triazaacenaphthylene-2-carboxamide] | 6.1
2 | C=CC(=O)N1CC[C@@H](NC(=O)c2sc3nccc4c3c2NC(=O)N4c2cccc(C(C)C)c2)C1 [Example 705, (R)—N-(1-Acryloylpyrrolidin-3-yl)-5-(3-isopropylphenyl)-4-oxo-4,5-dihydro-3H-1-thia-3,5,8-triazaacenaphthylene-2-carboxamide] | 6.7
3 | O=C(N[C@@H]1CCCNC1)c1sc2nccc3c2c1NC(=O)N3c1cc(-c2ccccc2)ccn1 [Example 610, (R)-4-Oxo-5-(4-phenylpyridin-2-yl)-N-(piperidin-3-yl)-4,5-dihydro-3H-1-thia-3,5,8-triazaacenaphthylene-2-carboxamide] | 6.2
4 | CN[C@@H](C)C(=O)N1CCC[C@@H](NC(=O)c2sc3nccc4c3c2NC(=O)N4c2ccc(Oc3ccccc3)cc2C)C1 [Example 853, 5-(2-Methyl-4-phenoxyphenyl)-N—((R)-1-((S)-2-(methylamino)propanol)piperidin-3-yl)-4-oxo-4,5-dihydro-3H-1-thia-3,5,8-triazaacenaphthylene-2-carboxamide] | 7.5
5 | C=CC(=O)N1CCC[C@@H](NC(=O)c2sc3nccc4c3c2NC(=O)N4c2cnc(OC(C)C)cc2C)C1 (single isomer, unassigned) [Example 804, (R)—N-(1-Acryloylpiperidin-3-yl)-5-(*R)-(6-isopropoxy-4-methylpyridin-3-yl)-4-oxo-4,5-dihydro-3H-1-thia-3,5,8-triazaacenaphthylene-2-carboxamide] | 6.1
6 | C=CC(=O)N1CCC[C@@H](NC(=O)c2sc3nccc4c3c2NC(=O)N4c2cnc(OC3CCC3)cc2C)C1 [Example 672, (R)—N-(1-Acryloylpiperidin-3-yl)-5-(6-cyclobutoxy-4-methylpyridin-3-yl)-4-oxo-4,5-dihydro-3H-1-thia-3,5,8-triazaacenaphthylene-2-carboxamide] | 7.6

same assay, conditions: Lanthascreen tracer competition, 60 minutes incubation; pIC50 = negative log of the IC50 in molar; read-out: BTK_I_binding pIC50 (converted)

Row | SMILES | IC50
7 | Cc1nc(Oc2ccccc2)ccc1N1C(=O)Nc2c(C(=O)N[C@@H]3CCCN(C(=O)OC(C)(C)C)C3)sc3nccc1c23 [Example 743, (R)-tert-Butyl 3-(5-(2-methyl-6-phenoxypyridin-3-yl)-4-oxo-4,5-dihydro-3H-1-thia-3,5,8-triazaacenaphthylene-2-carboxamido)piperidine-1-carboxylate] | 1.58 µM
8 | Cc1cc(OCCOC(C)C)ccc1N1C(=O)Nc2c(C(=O)N[C@@H]3CCCNC3)sc3nccc1c23 [Example 730, (R)-5-(4-(2-Isopropoxyethoxy)-2-methylphenyl)-4-oxo-N-(piperidin-3-yl)-4,5-dihydro-3H-1-thia-3,5,8-triazaacenaphthylene-2-carboxamide] | > 1 µM

same assay, conditions: pIC50 = negative log of the IC50 in molar; 60 minutes incubation, 50 nM Tracer 236

Row | SMILES | BTK_I_binding pIC50
9 | Cc1cc(Oc2ccccc2)ccc1N1C(=O)Nc2c(C(=O)N[C@@H]3CCNC3)sc3nccc1c23 [Example 159, (R)-5-(2-methyl-4-phenoxyphenyl)-4-oxo-N-(pyrrolidin-3-yl)-4,5-dihydro-3H-1-thia-3,5,8-triazaacenaphthylene-2-carboxamide] | 7.1
10 | Cc1cc(Oc2ccccc2)ccc1N1C(=O)Nc2c(C(=O)NC3CC4CCN3CC4)sc3nccc1c23 (centres unmarked) [Example 171, 5-(2-Methyl-4-phenoxyphenyl)-4-oxo-N-(quinuclidin-2-yl)-4,5-dihydro-3H-1-thia-3,5,8-triazaacenaphthylene-2-carboxamide] | 7.0
11 | C#CC(=O)N1CCC[C@@H](NC(=O)c2sc3nccc4c3c2NC(=O)N4c2ccc(Oc3ccccc3)cc2C)C1 [Example 161, (R)-5-(2-Methyl-4-phenoxyphenyl)-4-oxo-N-(1-propioloylpiperidin-3-yl)-4,5-dihydro-3H-1-thia-3,5,8-triazaacenaphthylene-2-carboxamide] | 7.7
12 | C/C=C(\F)C(=O)N1CCC[C@@H](NC(=O)c2sc3nccc4c3c2NC(=O)N4c2ccc(Oc3ccccc3)cc2C)C1 [Example 261, (R,Z)—N-(1-(2-Fluorobut-2-enol)piperidin-3-yl)-5-(2-methyl-4-phenoxyphenyl)-4-oxo-4,5-dihydro-3H-1-thia-3,5,8-triazaacenaphthylene-2-carboxamide] | 6.5
13 | C=CC(=O)N1CC[C@@H](NC(=O)c2sc3nccc4c3c2NC(=O)N4c2ccc(OC(C)C)cc2C)C1 [Example 126, (R)—N-(1-Acryloylpyrrolidin-3-yl)-5-(4-isopropoxy-2-methylphenyl)-4-oxo-4,5-dihydro-3H-1-thia-3,5,8-triazaacenaphthylene-2-carboxamide] | 6.7
14 | Cc1cc(Oc2ccccc2)ccc1N1C(=O)Nc2c(C(=O)NCCN3CCOCC3)sc3nccc1c23 [Example 275, 5-(2-Methyl-4-phenoxyphenyl)-N-(2-morpholinoethyl)-4-oxo-4,5-dihydro-3H-1-thia-3,5,8-triazaacenaphthylene-2-carboxamide] | 6.3
15 | C=CC(=O)N1CC(O)[C@@H](NC(=O)c2sc3nccc4c3c2NC(=O)N4c2ccc(Oc3ccccc3)cc2C)C1 (stereo in doubt) [Example 50, N-((3S,4S)-1-Acryloyl-4-hydroxypyrrolidin-3-yl)-5-(2-methyl-4-phenoxyphenyl)-4-oxo-4,5-dihydro-3H-1-thia-3,5,8-triazaacenaphthylene-2-carboxamide] | 7.5

same assay, conditions: pIC50 = negative log of the IC50 in molar; 60 minutes incubation, 50 nM Tracer 236; read-out: BTK_I_binding pIC50 (converted)

Row | SMILES | IC50
16 | C=CC(=O)N1CCC[C@@H](NC(=O)c2sc3nccc4c3c2NC(=O)N4c2ccc(OC(C)C)cc2C)C1 [Example 33, (R)—N-(1-Acryloylpiperidin-3-yl)-5-(4-isopropoxy-2-methylphenyl)-4-oxo-4,5-dihydro-3H-1-thia-3,5,8-triazaacenaphthylene-2-carboxamide] | 0.0316 µM

same assay, conditions: unphosphorylated-BTK kinase domain, 50 nM Tracer 236, 60 minutes; pIC50 = negative log of the IC50 in molar

Row | SMILES | BTK_I_binding pIC50
17 | O=C(N[C@@H]1CCCNC1)c1sc2nccc3c2c1NC(=O)N3c1ccnc(-c2ccccc2)c1 [Example 585, (R)-4-Oxo-5-(2-phenylpyridin-4-yl)-N-(piperidin-3-yl)-4,5-dihydro-3H-1-thia-3,5,8-triazaacenaphthylene-2-carboxamide] | 6.5
18 | C=CC(=O)N1CC[C@@H](NC(=O)c2sc3nccc4c3c2NC(=O)N4c2ccc(OC)cc2C)C1 [Example 299, (R)—N-(1-Acryloylpyrrolidin-3-yl)-5-(4-methoxy-2-methylphenyl)-4-oxo-4,5-dihydro-3H-1-thia-3,5,8-triazaacenaphthylene-2-carboxamide] | 6.1
19 | Cc1cc(Oc2ccc(F)cc2)ccc1N1C(=O)Nc2c(C(=O)N[C@@H]3CCCN(C)C3)sc3nccc1c23 [Example 295, (R)-5-(4-(4-Fluorophenoxy)-2-methylphenyl)-N-(1-methylpiperidin-3-yl)-4-oxo-4,5-dihydro-3H-1-thia-3,5,8-triazaacenaphthylene-2-carboxamide] | 6.1
20 | O=C(N[C@H]1CNC[C@@H]1F)c1sc2nccc3c2c1NC(=O)N3c1ccc(Oc2ccccc2)cc1 [Example 579, N-((3S,4S)-4-Fluoropyrrolidin-3-yl)-4-oxo-5-(4-phenoxyphenyl)-4,5-dihydro-3H-1-thia-3,5,8-triazaacenaphthylene-2-carboxamide] | 6.9
21 | Cc1cc(Oc2ccccc2)ccc1N1C(=O)Nc2c(C(=O)N[C@@H]3CCN(C(=O)/C=C/CN4C[C@@H]5OCCO[C@@H]5C4)C3)sc3nccc1c23 (single isomer, unassigned) [Example 555, 5-(*S)-(2-Methyl-4-phenoxyphenyl)-4-oxo-N—((R)-1-((E)-4-((4aR,7aS)-tetrahydro-2H-[1,4]dioxino[2,3-c]pyrrol-6(3H)-yl)but-2-enol)pyrrolidin-3-yl)-4,5-dihydro-3H-1-thia-3,5,8-triazaacenaphthylene-2-carboxamide] | 8.1
22 | C=CC(=O)N1CCC[C@@H](NC(=O)c2sc3nccc4c3c2NC(=O)N4c2cnc(Oc3ccccc3)cn2)C1 [Example 528, (R)—N-(1-Acryloylpiperidin-3-yl)-4-oxo-5-(5-phenoxypyrazin-2-yl)-4,5-dihydro-3H-1-thia-3,5,8-triazaacenaphthylene-2-carboxamide] | 7.8
23 | CNCC(=O)N1CCC[C@@H](NC(=O)c2sc3nccc4c3c2NC(=O)N4c2cccc(-c3ccccc3)c2)C1 [Example 551, (R)-5-([1,1′-Biphenyl]-3-yl)-N-(1-(2-(methylamino)acetyl)piperidin-3-yl)-4-oxo-4,5-dihydro-3H-1-thia-3,5,8-triazaacenaphthylene-2-carboxamide] | 6.8
24 | Cc1cc(Oc2ccc(F)cc2F)ccc1N1C(=O)Nc2c(C(=O)N[C@@H]3CCCN(C)C3)sc3nccc1c23 [Example 302, (R)-5-(4-(2,4-Difluorophenoxy)-2-methylphenyl)-N-(1-methylpiperidin-3-yl)-4-oxo-4,5-dihydro-3H-1-thia-3,5,8-triazaacenaphthylene-2-carboxamide] | 6.0
25 | Cc1cc(Oc2ccccc2)ccc1N1C(=O)Nc2c(C(=O)NCCN3CCOC[C@H]3C)sc3nccc1c23 [Example 296, (R)-5-(2-Methyl-4-phenoxyphenyl)-N-(2-(3-methylmorpholino)ethyl)-4-oxo-4,5-dihydro-3H-1-thia-3,5,8-triazaacenaphthylene-2-carboxamide] | 6.1

same assay, conditions: unphosphorylated-BTK kinase domain, 60 minutes incubation, 50 nM Tracer 236; pIC50 = negative log of the IC50 in molar

Row | SMILES | BTK_I_binding pIC50
26 | O=C(NC1CCNCC1)c1sc2nccc3c2c1NC(=O)N3c1ccc(Oc2ccccc2)cc1 [Example 926, 4-oxo-5-(4-phenoxyphenyl)-N-(piperidin-4-yl)-4,5-dihydro-3H-1-thia-3,5,8-triazaacenaphthylene-2-carboxamide] | 6.2
